Structures can show the parent of a compound that is named as a salt.
What was measured:
Assay type in all cases: biochemical
recombinant human VAP-1 = molecular target: T1, recombinant human VAP-1 (Homo sapiens, UniProt Q16853); assay: Activity on recombinant human VAP-1, HRP-coupled Amplex Red hydrogen peroxide assay; conditions: substrate 1 mM benzylamine; compound incubated with enzyme at 37° C. for 30 minutes; pH 7.4; read-out: Inhibitory Activity (IC50, nM) human VAP-1
T1 construct: purchased R&D systems
T1 sequence (Q16853 1-763): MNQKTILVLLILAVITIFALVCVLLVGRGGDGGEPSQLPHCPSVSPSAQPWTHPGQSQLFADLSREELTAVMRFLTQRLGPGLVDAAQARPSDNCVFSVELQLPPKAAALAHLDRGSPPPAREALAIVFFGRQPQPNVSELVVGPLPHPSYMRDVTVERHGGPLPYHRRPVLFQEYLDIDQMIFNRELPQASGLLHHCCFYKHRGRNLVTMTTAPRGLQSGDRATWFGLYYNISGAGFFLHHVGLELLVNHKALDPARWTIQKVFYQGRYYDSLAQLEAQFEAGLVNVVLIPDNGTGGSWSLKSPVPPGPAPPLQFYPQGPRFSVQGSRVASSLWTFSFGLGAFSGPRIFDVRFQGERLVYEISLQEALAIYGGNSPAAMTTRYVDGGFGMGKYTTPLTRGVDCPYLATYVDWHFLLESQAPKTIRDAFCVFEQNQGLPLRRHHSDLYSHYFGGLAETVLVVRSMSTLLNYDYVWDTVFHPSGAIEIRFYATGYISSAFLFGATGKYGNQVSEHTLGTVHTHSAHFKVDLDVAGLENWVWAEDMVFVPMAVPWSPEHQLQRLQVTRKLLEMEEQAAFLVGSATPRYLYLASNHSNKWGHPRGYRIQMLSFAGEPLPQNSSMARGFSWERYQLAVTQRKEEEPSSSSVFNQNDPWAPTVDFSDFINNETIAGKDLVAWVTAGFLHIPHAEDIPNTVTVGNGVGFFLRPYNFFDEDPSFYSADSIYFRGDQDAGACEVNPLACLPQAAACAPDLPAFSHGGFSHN
In short: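 Compounds were preincubated with purified enzyme in 50 mM sodium phosphate pH 7.4 at 37 °C for 30 min, then 200 uM Amplex Red, 1 mM benzylamine and 1 U/mL HRP were added. Resorufin fluorescence (ex 544/em 590 nm) was followed over 1-2 h; IC50 came from 4-parameter fits of signal-rate inhibition.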

[1] = molecular target: T2, recombinant human DAO (diamine oxidase) (Homo sapiens, UniProt P19801); assay: Activity on recombinant human DAO, method similar to the VAP-1 assay; conditions: substrate 1 mM putrescine; read-out: Inhibitory Activity (IC50, nM) DAO
T2 construct: purchased R&D systems
T2 sequence (P19801 20-751): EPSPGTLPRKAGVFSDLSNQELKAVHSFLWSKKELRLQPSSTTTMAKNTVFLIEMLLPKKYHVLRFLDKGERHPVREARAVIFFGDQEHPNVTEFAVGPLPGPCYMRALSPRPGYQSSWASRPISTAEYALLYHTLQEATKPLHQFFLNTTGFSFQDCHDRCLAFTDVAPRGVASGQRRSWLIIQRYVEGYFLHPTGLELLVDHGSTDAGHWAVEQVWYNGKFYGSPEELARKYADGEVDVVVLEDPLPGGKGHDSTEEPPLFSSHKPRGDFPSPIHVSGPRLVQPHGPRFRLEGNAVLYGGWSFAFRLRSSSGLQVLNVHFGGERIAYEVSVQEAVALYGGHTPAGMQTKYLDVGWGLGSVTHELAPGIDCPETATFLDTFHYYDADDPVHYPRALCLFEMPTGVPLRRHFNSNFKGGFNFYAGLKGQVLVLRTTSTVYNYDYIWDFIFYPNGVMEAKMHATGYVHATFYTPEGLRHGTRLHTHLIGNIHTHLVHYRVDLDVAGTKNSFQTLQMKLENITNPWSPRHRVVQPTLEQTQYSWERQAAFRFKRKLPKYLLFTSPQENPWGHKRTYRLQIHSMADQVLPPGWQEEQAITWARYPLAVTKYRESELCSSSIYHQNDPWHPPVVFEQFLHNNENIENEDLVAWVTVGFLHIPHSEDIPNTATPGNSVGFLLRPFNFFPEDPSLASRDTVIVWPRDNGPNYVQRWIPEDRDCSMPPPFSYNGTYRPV
In short: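 Inhibition of recombinant human diamine oxidase (DAO, R&D systems) was assessed by the same approach as the VAP-1 assay, using 1 mM putrescine as substrate. Hydrogen peroxide formed was detected through an HRP-coupled Amplex Red reaction yielding fluorescent resorufin, read at 544 nm excitation and 590 nm emission. IC50 values came from four-parameter logistic fitting in GraphPad Prism.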

[2] = molecular target: T3, recombinant human MAO-A (monoamine oxidase-A) (Homo sapiens, UniProt P21397); assay: Activity on recombinant human MAO-A, method similar to the VAP-1 assay; conditions: substrate 0.5 mM tyramine; read-out: Inhibitory Activity (IC50, nM) MAO-A
T3 construct: purchased Sigma-Aldrich
T3 sequence (P21397 1-527): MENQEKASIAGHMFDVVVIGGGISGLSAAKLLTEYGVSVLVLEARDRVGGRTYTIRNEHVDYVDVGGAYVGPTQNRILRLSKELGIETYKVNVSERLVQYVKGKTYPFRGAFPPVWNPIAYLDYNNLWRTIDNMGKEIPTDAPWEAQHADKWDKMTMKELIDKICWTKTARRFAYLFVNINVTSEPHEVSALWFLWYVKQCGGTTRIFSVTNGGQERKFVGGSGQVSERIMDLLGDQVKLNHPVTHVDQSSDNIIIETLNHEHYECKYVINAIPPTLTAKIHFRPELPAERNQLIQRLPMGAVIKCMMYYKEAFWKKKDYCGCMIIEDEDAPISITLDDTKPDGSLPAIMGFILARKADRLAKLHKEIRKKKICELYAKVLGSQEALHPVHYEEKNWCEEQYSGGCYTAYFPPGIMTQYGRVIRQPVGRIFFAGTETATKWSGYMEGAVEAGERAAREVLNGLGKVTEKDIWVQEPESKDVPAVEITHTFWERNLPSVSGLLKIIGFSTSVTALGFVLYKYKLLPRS
In short: (§1)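 8-point, 1:3 dose-response, four-parameter logistic IC50 from reduction in fluorescence rate versus DMSO control. HRP/Amplex Red detection of H2O2 (ex 544, em 590 nm) after 30 min, 37 °C compound–enzyme preincubation in pH 7.4 phosphate buffer. MAO-A substrate: 0.5 mM tyramine; MAO-B: 1 mM benzylamine.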

[3] = molecular target: T4, recombinant human MAO-B (monoamine oxidase-B) (Homo sapiens, UniProt P27338); assay: Activity on recombinant human MAO-B, method similar to the VAP-1 assay; conditions: substrate 1 mM benzylamine; read-out: Inhibitory Activity (IC50, nM) MAO-B
T4 construct: purchased Sigma-Aldrich
T4 sequence (P27338 1-520): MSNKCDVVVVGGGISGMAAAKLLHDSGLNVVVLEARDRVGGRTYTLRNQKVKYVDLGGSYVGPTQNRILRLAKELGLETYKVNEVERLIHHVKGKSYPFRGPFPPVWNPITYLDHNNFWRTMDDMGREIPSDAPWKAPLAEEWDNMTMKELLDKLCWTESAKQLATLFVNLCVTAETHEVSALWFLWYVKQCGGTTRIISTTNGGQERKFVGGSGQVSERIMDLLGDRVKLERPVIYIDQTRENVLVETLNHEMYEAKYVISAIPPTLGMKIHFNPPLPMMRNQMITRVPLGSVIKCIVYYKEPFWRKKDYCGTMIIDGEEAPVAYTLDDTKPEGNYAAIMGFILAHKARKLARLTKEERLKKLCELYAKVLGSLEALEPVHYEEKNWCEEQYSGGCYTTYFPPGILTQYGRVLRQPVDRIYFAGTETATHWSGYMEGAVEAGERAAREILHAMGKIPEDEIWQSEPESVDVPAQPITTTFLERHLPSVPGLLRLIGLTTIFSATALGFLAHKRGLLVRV
In short: as §1

Row | Compound | IC50 (recombinant human VAP-1) | IC50 [1] | IC50 [2] | IC50 [3]
1 | NC/C(=C\F)Cn1ncn(Cc2ccc(-c3cccc(N4CCNCC4)c3)s2)c1=O [Example 23, 2-[(2E)-2-(aminomethyl)-3-fluoroprop-2-en-1-yl]-4-(5-[3-(piperazin-1-yl)phenyl]thiophen-2-ylmethyl)-2,4-dihydro-3H-1,2,4-triazol-3-one hydrochloride] | 2.5 nM | 3200 nM | > 100000 nM | 300 nM
2 | NC/C(=C\F)Cn1ncn(Cc2ccc(-c3ccc4ocnc4c3)s2)c1=O [Example 62, 2-[(2E)-2-(aminomethyl)-3-fluoroprop-2-en-1-yl]-4-[5-(1,3-benzooxazol-5-yl)thiophen-2-yl]methyl-2,4-dihydro-3H-1,2,4-triazol-3-one hydrochloride] | 3.7 nM | 530 nM | 2100 nM | 310 nM
3 | Cc1cc(-c2ccc(Cn3cnn(C/C(=C/F)CN)c3=O)s2)n(C)n1 [Example 158, 2-[(2E)-2-(aminomethyl)-3-fluoroprop-2-en-1-yl]-4-{[5-(1,3-dimethyl-1H-pyrazol-5-yl)thiophen-2-yl]methyl}-2,4-dihydro-3H-1,2,4-triazol-3-one] | 1.9 nM | 340 nM | > 100000 nM | 430 nM
4 | NC/C(=C\F)Cn1ncn(Cc2ccc(/C=C/c3ccsc3)s2)c1=O [Example 121, 2-[(E)-2-(aminomethyl)-3-fluoro-allyl]-4-[[5-[(E)-2-(3-thienyl)vinyl]-2-thienyl]methyl]-1,2,4-triazol-3-one hydrochloride] | 1.2 nM | 1800 nM | > 100000 nM | 290 nM
5 | COc1ccc(-c2ccc(Cn3cnn(C/C(=C/F)CN)c3=O)s2)cn1 [Example 45, 2-[(2E)-2-(aminomethyl)-3-fluoroprop-2-en-1-yl]-4-[5-(6-methoxypyridin-3-yl)thiophen-2-yl]methyl-2,4-dihydro-3H-1,2,4-triazol-3-one hydrochloride] | 1.1 nM | 330 nM | > 100000 nM | 400 nM

Compounds with a lower IC50 (recombinant human VAP-1), results first:

Row | IC50 (recombinant human VAP-1) | IC50 [1] | IC50 [2] | IC50 [3] | Compound
6 | 0.2 nM | 760 nM | > 100000 nM | 480 nM | Cc1c(-c2ccc(Cn3cnn(C/C(=C/F)CN)c3=O)s2)ccc2c1COC(=O)N2 [Example 102, 6-[5-[[1-[(E)-2-(aminomethyl)-3-fluoro-allyl]-5-oxo-1,2,4-triazol-4-yl]methyl]-2-thienyl]-5-methyl-1,4-dihydro-3,1-benzoxazin-2-one]
7 | 0.7 nM | 9800 nM | 30000 nM | 490 nM | CN(C)c1ccc(C#Cc2ccc(Cn3cnn(C/C(=C/F)CN)c3=O)s2)cn1 [Example 128, 2-[(E)-2-(aminomethyl)-3-fluoro-allyl]-4-[[5-[2-[6-(dimethylamino)-3-pyridyl]ethynyl]-2-thienyl]methyl]-1,2,4-triazol-3-one]
8 | 0.6 nM | 250 nM | > 100000 nM | > 10000 nM | Cn1cnc2cc(/C=C/c3ccc(Cn4cnn(C/C(=C/F)CN)c4=O)s3)cnc21 [Example 123, 2-[(E)-2-(aminomethyl)-3-fluoro-allyl]-4-[[5-[(E)-2-(3-methylimidazo[4,5-b]pyridin-6-yl)vinyl]-2-thienyl]methyl]-1,2,4-triazol-3-one hydrochloride]
9 | 0.4 nM | 230 nM | 24000 nM | 660 nM | NC/C(=C\F)Cn1ncn(Cc2ccc(-c3ccc4c(c3)NC(=O)CO4)s2)c1=O [Example 90, 6-[5-(1-[(2E)-2-(aminomethyl)-3-fluoroprop-2-en-1-yl]-5-oxo-1,5-dihydro-4H-1,2,4-triazol-4-ylmethyl)thiophen-2-yl]-2H-1,4-benzoxazin-3(4H)-one hydrochloride]
10 | 0.3 nM | 1200 nM | > 100000 nM | 11000 nM | NC/C(=C\F)Cn1ncn(Cc2ccc(-c3ccc4c(c3)C(=O)NC4)s2)c1=O [Example 67, 6-[5-(1-[(2E)-2-(aminomethyl)-3-fluoroprop-2-en-1-yl]-5-oxo-1,5-dihydro-4H-1,2,4-triazol-4-ylmethyl)thiophen-2-yl]-2,3-dihydro-1H-isoindol-1-one hydrochloride]
11 | 0.6 nM | 530 nM | > 100000 nM | 5900 nM | NC/C(=C\F)Cn1ncn(Cc2ccc(-c3cnc4c(c3)CCCN4)s2)c1=O [Example 111, 2-[(E)-2-(aminomethyl)-3-fluoro-allyl]-4-[[5-(5,6,7,8-tetrahydro-1,8-naphthyridin-3-yl)-2-thienyl]methyl]-1,2,4-triazol-3-one]
12 | 0.2 nM | 630 nM | > 100000 nM | 4800 nM | Cc1cc(-c2ccc(Cn3cnn(C/C(=C/F)CN)c3=O)s2)cc2ccc(=O)[nH]c12 [Example 78, 6-[5-[[1-[(E)-2-(aminomethyl)-3-fluoro-allyl]-5-oxo-1,2,4-triazol-4-yl]methyl]-2-thienyl]-8-methyl-1H-quinolin-2-one]

Source: patent US11780830B2, “Triazolone derivatives or salts thereof and pharmaceutical compositions comprising the same” (YUHAN CORPORATION, priority 2018, dated 2023)
